# pIC50: −log10 of the molar value.
# Tested on: K24384-001-R-PDC complex spheroid growth
# Test: Anticancer human tumor K24384-001-R-PDC patient-derived pancreatic adenocarcinoma cell line growth inhibition [AhR]
# Settings: for pIC50: curve of first compound; for viability, T/C: stronger effect = lower value
# Procedure, shortened: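 Spheroids combined tumor cells with HUVEC endothelial cells and human MSCs as stroma. AhR antagonists were paired with standard or investigational drugs, each dosed in half-log steps down from near clinical Cmax, or from 10 microM where Cmax was unknown.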
# [1] = second compound 0.1 µM, first compound 0.0316 µM
# [2] = second compound 0.1 µM, first compound 0.1 µM
# [3] = second compound 0.1 µM, first compound 0.316 µM
# [4] = second compound 0.1 µM, first compound 1 µM
# [5] = second compound 0.1 µM, first compound 3.16 µM
# [6] = second compound 0.1 µM, first compound 10 µM
# [7] = second compound 0.316 µM, first compound 0.0316 µM
# [8] = second compound 0.316 µM, first compound 0.1 µM
# [9] = second compound 0.316 µM, first compound 0.316 µM
# [10] = second compound 0.316 µM, first compound 1 µM
# [11] = second compound 0.316 µM, first compound 3.16 µM
# [12] = second compound 0.316 µM, first compound 10 µM
# [13] = second compound 1 µM, first compound 0.0316 µM
# [14] = second compound 1 µM, first compound 0.1 µM
# [15] = second compound 1 µM, first compound 0.316 µM
# [16] = second compound 1 µM, first compound 1 µM
# [17] = second compound 1 µM, first compound 3.16 µM
# [18] = second compound 1 µM, first compound 10 µM
# [19] = second compound 3.16 µM, first compound 0.0316 µM
# [20] = second compound 3.16 µM, first compound 0.1 µM
# [21] = second compound 3.16 µM, first compound 0.316 µM
# [22] = second compound 3.16 µM, first compound 1 µM
# [23] = second compound 3.16 µM, first compound 3.16 µM
# [24] = second compound 3.16 µM, first compound 10 µM
# [25] = second compound 10 µM, first compound 0.0316 µM
# [26] = second compound 10 µM, first compound 0.1 µM
# [27] = second compound 10 µM, first compound 0.316 µM
# [28] = second compound 10 µM, first compound 1 µM
# [29] = second compound 10 µM, first compound 3.16 µM
# [30] = second compound 10 µM, first compound 10 µM
# 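Throughout, for viability, T/C: percent of DMSO vehicle-treated spheroid viability set as 100%.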
smiles,measurement,setting,value
CC(C)c1c(-c2ccccc2)nc2c(C#N)c[nH]n2c1=O + Cc1ccccc1N=Nc1ccc(NC(=O)c2ccnn2C)c(C)c1,pIC50,second compound 0.1 µM,< 5.00
same,pIC50,second compound 0.316 µM,< 5.00
same,pIC50,second compound 1 µM,< 5.00
same,pIC50,second compound 3.16 µM,< 5.00
same,pIC50,second compound 10 µM,< 5.00
same,"viability, T/C",[1],114%
same,"viability, T/C",[2],121%
same,"viability, T/C",[3],123%
same,"viability, T/C",[4],108%
same,"viability, T/C",[5],88.8%
same,"viability, T/C",[6],86.2%
same,"viability, T/C",[7],112%
same,"viability, T/C",[8],124%
same,"viability, T/C",[9],121%
same,"viability, T/C",[10],128%
same,"viability, T/C",[11],104%
same,"viability, T/C",[12],89.7%
same,"viability, T/C",[13],117%
same,"viability, T/C",[14],109%
same,"viability, T/C",[15],113%
same,"viability, T/C",[16],103%
same,"viability, T/C",[17],105%
same,"viability, T/C",[18],109%
same,"viability, T/C",[19],98.2%
same,"viability, T/C",[20],109%
same,"viability, T/C",[21],124%
same,"viability, T/C",[22],114%
same,"viability, T/C",[23],90.8%
same,"viability, T/C",[24],122%
same,"viability, T/C",[25],132%
same,"viability, T/C",[26],141%
same,"viability, T/C",[27],114%
same,"viability, T/C",[28],119%
same,"viability, T/C",[29],126%
same,"viability, T/C",[30],119%
CC1COCCN1c1cc(-c2ccnn2C)c2ccnc(-c3ccn[nH]3)c2n1 (stereo not given) + Cc1ccccc1N=Nc1ccc(NC(=O)c2ccnn2C)c(C)c1,pIC50,second compound 0.1 µM,6.99
same,pIC50,second compound 0.316 µM,6.98
same,pIC50,second compound 1 µM,7.02
same,pIC50,second compound 3.16 µM,7.00
same,pIC50,second compound 10 µM,6.77
same,"viability, T/C","second compound 0.1 µM, first compound 0.00316 µM",101%
same,"viability, T/C","second compound 0.1 µM, first compound 0.01 µM",107%
same,"viability, T/C",[1],82.2%
same,"viability, T/C",[2],52.3%
same,"viability, T/C",[3],29.6%
same,"viability, T/C",[4],28.2%
same,"viability, T/C","second compound 0.316 µM, first compound 0.00316 µM",114%
same,"viability, T/C","second compound 0.316 µM, first compound 0.01 µM",120%
same,"viability, T/C",[7],80.5%
same,"viability, T/C",[8],54.2%
same,"viability, T/C",[9],32.5%
same,"viability, T/C",[10],26.7%
same,"viability, T/C","second compound 1 µM, first compound 0.00316 µM",103%
same,"viability, T/C","second compound 1 µM, first compound 0.01 µM",99.5%
same,"viability, T/C",[13],102%
same,"viability, T/C",[14],47.5%
same,"viability, T/C",[15],29.1%
same,"viability, T/C",[16],28.6%
same,"viability, T/C","second compound 3.16 µM, first compound 0.00316 µM",101%
same,"viability, T/C","second compound 3.16 µM, first compound 0.01 µM",92.1%
same,"viability, T/C",[19],82.1%
same,"viability, T/C",[20],48.7%
same,"viability, T/C",[21],33.4%
same,"viability, T/C",[22],28.5%
same,"viability, T/C","second compound 10 µM, first compound 0.00316 µM",129%
same,"viability, T/C","second compound 10 µM, first compound 0.01 µM",128%
same,"viability, T/C",[25],108%
same,"viability, T/C",[26],57.1%
same,"viability, T/C",[27],39.7%
same,"viability, T/C",[28],42.4%
CC1COCCN1c1cc(C2(S(C)(=N)=O)CC2)nc(-c2ccnc3[nH]ccc23)n1 (stereo not given) + Cc1ccccc1N=Nc1ccc(NC(=O)c2ccnn2C)c(C)c1,pIC50,second compound 0.1 µM,5.68
same,pIC50,second compound 0.316 µM,5.63
same,pIC50,second compound 1 µM,5.67
same,pIC50,second compound 3.16 µM,5.81
same,pIC50,second compound 10 µM,5.56
same,"viability, T/C",[1],102%
same,"viability, T/C",[2],126%
same,"viability, T/C",[3],105%
same,"viability, T/C",[4],70.1%
same,"viability, T/C",[5],38.7%
same,"viability, T/C",[6],35.5%
same,"viability, T/C",[7],111%
same,"viability, T/C",[8],115%
same,"viability, T/C",[9],97.2%
same,"viability, T/C",[10],76.2%
same,"viability, T/C",[11],39.5%
same,"viability, T/C",[12],30.9%
same,"viability, T/C",[13],95.2%
same,"viability, T/C",[14],106%
same,"viability, T/C",[15],90.5%
same,"viability, T/C",[16],71.6%
same,"viability, T/C",[17],38.8%
same,"viability, T/C",[18],29.2%
same,"viability, T/C",[19],76.4%
same,"viability, T/C",[20],116%
same,"viability, T/C",[21],95.8%
same,"viability, T/C",[22],60.4%
same,"viability, T/C",[23],35.5%
same,"viability, T/C",[24],27.4%
same,"viability, T/C",[25],109%
same,"viability, T/C",[26],97.1%
same,"viability, T/C",[27],98.5%
same,"viability, T/C",[28],75.8%
same,"viability, T/C",[29],45.8%
same,"viability, T/C",[30],38.2%
COc1ccc([C@@H](O)c2cc(-c3ncnc4cc(N5CCOCC5)ccc34)c(F)cc2Cl)nn1 + Cc1ccccc1N=Nc1ccc(NC(=O)c2ccnn2C)c(C)c1,pIC50,second compound 0.1 µM,5.23
same,pIC50,second compound 0.316 µM,5.31
same,pIC50,second compound 1 µM,5.44
same,pIC50,second compound 3.16 µM,5.60
same,pIC50,second compound 10 µM,5.43
same,"viability, T/C",[1],99.7%
same,"viability, T/C",[2],99%
same,"viability, T/C",[3],82.2%
same,"viability, T/C",[4],66.7%
same,"viability, T/C",[5],62.5%
same,"viability, T/C",[6],42.1%
same,"viability, T/C",[7],99.3%
same,"viability, T/C",[8],90.5%
same,"viability, T/C",[9],80.4%
same,"viability, T/C",[10],82%
same,"viability, T/C",[11],53.8%
same,"viability, T/C",[12],37.2%
same,"viability, T/C",[13],96.1%
same,"viability, T/C",[14],95.7%
same,"viability, T/C",[15],86.1%
same,"viability, T/C",[16],70.8%
same,"viability, T/C",[17],51.9%
same,"viability, T/C",[18],37.8%
same,"viability, T/C",[19],99.9%
same,"viability, T/C",[20],96.6%
same,"viability, T/C",[21],81%
same,"viability, T/C",[22],64.2%
same,"viability, T/C",[23],47.2%
same,"viability, T/C",[24],34.9%
same,"viability, T/C",[25],97%
same,"viability, T/C",[26],103%
same,"viability, T/C",[27],82.5%
same,"viability, T/C",[28],78.7%
same,"viability, T/C",[29],50.9%
same,"viability, T/C",[30],32.7%
O=C(C=Cn1cnc(-c2cc(C(F)(F)F)cc(C(F)(F)F)c2)n1)NNc1cnccn1 + Cc1ccccc1N=Nc1ccc(NC(=O)c2ccnn2C)c(C)c1,pIC50,second compound 0.1 µM,6.62
same,pIC50,second compound 0.316 µM,6.84
same,pIC50,second compound 1 µM,6.80
same,pIC50,second compound 3.16 µM,6.83
same,pIC50,second compound 10 µM,6.88
same,"viability, T/C","second compound 0.1 µM, first compound 0.00949 µM",101%
same,"viability, T/C","second compound 0.1 µM, first compound 0.03 µM",104%
same,"viability, T/C","second compound 0.1 µM, first compound 0.0949 µM",68.2%
same,"viability, T/C","second compound 0.1 µM, first compound 0.3 µM",47.9%
same,"viability, T/C","second compound 0.1 µM, first compound 0.949 µM",27.1%
same,"viability, T/C","second compound 0.1 µM, first compound 3 µM",22.9%
same,"viability, T/C","second compound 0.316 µM, first compound 0.00949 µM",88%
same,"viability, T/C","second compound 0.316 µM, first compound 0.03 µM",106%
same,"viability, T/C","second compound 0.316 µM, first compound 0.0949 µM",62.3%
same,"viability, T/C","second compound 0.316 µM, first compound 0.3 µM",32.6%
same,"viability, T/C","second compound 0.316 µM, first compound 0.949 µM",30.2%
same,"viability, T/C","second compound 0.316 µM, first compound 3 µM",22.1%
same,"viability, T/C","second compound 1 µM, first compound 0.00949 µM",97.4%
same,"viability, T/C","second compound 1 µM, first compound 0.03 µM",89%
same,"viability, T/C","second compound 1 µM, first compound 0.0949 µM",62.3%
same,"viability, T/C","second compound 1 µM, first compound 0.3 µM",34.2%
same,"viability, T/C","second compound 1 µM, first compound 0.949 µM",26.5%
same,"viability, T/C","second compound 1 µM, first compound 3 µM",23%
same,"viability, T/C","second compound 3.16 µM, first compound 0.00949 µM",76.9%
same,"viability, T/C","second compound 3.16 µM, first compound 0.03 µM",77.6%
same,"viability, T/C","second compound 3.16 µM, first compound 0.0949 µM",59.3%
same,"viability, T/C","second compound 3.16 µM, first compound 0.3 µM",34%
same,"viability, T/C","second compound 3.16 µM, first compound 0.949 µM",27.9%
same,"viability, T/C","second compound 3.16 µM, first compound 3 µM",19.7%
same,"viability, T/C","second compound 10 µM, first compound 0.00949 µM",86.3%
same,"viability, T/C","second compound 10 µM, first compound 0.03 µM",79.4%
same,"viability, T/C","second compound 10 µM, first compound 0.0949 µM",57.5%
same,"viability, T/C","second compound 10 µM, first compound 0.3 µM",31.4%
same,"viability, T/C","second compound 10 µM, first compound 0.949 µM",32.9%
same,"viability, T/C","second compound 10 µM, first compound 3 µM",25.8%

# From PubChem BioAssay AID1919009 (Molecular Pharmacology Branch, DTP, NCI, 2023)
